Test results as given in patent US11274332B2, “Methods of administering 3,4-diaminopyridine” (SERB SA, priority 2011, dated 2022).
Values joined by “and” are separate entries in the source; they are usually repeats but may differ in a detail not shown here. Equal entries are not always repeated.

Test: Food-effect crossover study, adverse events after single 20 mg amifampridine phosphate in healthy subjects (Examples 10, 11)
Format: in vivo
Description: This was a randomized, open-label, 2-treatment, 2-period crossover study with 44 completed subjects to assess the safety, tolerability, and the effect of food on the relative bioavailability of a single dose of amifampridine phosphate.
Safety was evaluated for all subjects who take at least one dose of 3,4-DAP. Safety was evaluated by recording the incidence of adverse events (AEs), physical examination, vital signs, concomitant medications, clinical laboratory assessments, and 12-lead electrocardiogram (ECG).
Analysis for the following safety parameters was carried out on the Safety Population: AEs which included all AEs, AEs by severity, drug-related AEs, deaths, SAEs, AEs leading to study discontinuation, and most frequent AEs, standard clinical laboratory tests, vital signs, ECG measurements, routine physical examinations, and prior and concomitant medications. The cut-off for frequency of AEs reported was determined based on the data. No formal statistical testing was performed for the safety analyses; only descriptive statistics were provided. Appropriate descriptive statistics for the safety data were determined using SAS Version 9.2.
AEs were coded according to the Medical Dictionary for Regulatory Activities (MedDRA; Version 13.0). […] The occurrence of AEs was assessed continuously from the time the subject signed the VID and consent. The reporting period for non-serious AEs was from the first dose to the final study visit. The investigator determined the severity of each event and the relationship of an AE to the IP and recorded it on the source documents and AE CRF. The nature, time of onset, duration, severity, and relationship to study drug was documented, including documentation of investigator assessment and review. All events were assessed to determine if the AE was serious.
The Investigator determined the severity of each event and the event was recorded on the source documents and AE CRF. A coding of “mild” meant there was no limitation of usual activities, “moderate” meant there was some limitation of usual activities, “severe” meant there was an inability to carry out usual activities.
The reporting period for AEs that met the criteria of an SAE began from the time of signing the VID and consent form through follow-up or early termination. […] Clinical Laboratory Assessments

Nc1ccncc1N.O=P(O)(O)O [amifampridine phosphate, 3,4-diaminopyridine phosphate]
Abdominal Pain Upper, drug-related AE: % of subjects (Fasted N=45): 4% | Abdominal Pain Upper, drug-related AE: events (Fasted N=45): 2 | Abdominal Pain Upper, drug-related AE: subjects (Fasted N=45): 2 | Abdominal Pain, drug-related AE: % of subjects (Fasted N=45): 7% | Abdominal Pain, drug-related AE: events (Fasted N=45): 3 | Abdominal Pain, drug-related AE: subjects (Fasted N=45): 3 | Abdominal Tenderness, drug-related AE: % of subjects (Fasted N=45): 2% | Abdominal Tenderness, drug-related AE: events (Fasted N=45): 1 | Abdominal Tenderness, drug-related AE: subjects (Fasted N=45): 1 | Acne, drug-related AE: % of subjects (Fasted N=45): 2% | Acne, drug-related AE: events (Fasted N=45): 1 | Acne, drug-related AE: subjects (Fasted N=45): 1 | All treatment emergent AEs, Mild: % of subjects (Fasted N=45): 53% | All treatment emergent AEs, Mild: events (Fasted N=45): 60 | All treatment emergent AEs, Mild: subjects (Fasted N=45): 24 | All treatment emergent AEs, Moderate: % of subjects (Fasted N=45): 2% | All treatment emergent AEs, Moderate: events (Fasted N=45): 1 | All treatment emergent AEs, Moderate: subjects (Fasted N=45): 1 | All treatment emergent AEs, Severe: % of subjects (Fasted N=45): (0%) [0] | All treatment emergent AEs, Severe: events (Fasted N=45): (0%) [0] | All treatment emergent AEs, Severe: subjects (Fasted N=45): 0 | All treatment emergent AEs, Total: events (Fasted N=45): 61 | Constipation, drug-related AE: % of subjects (Fasted N=45): (0%) [0] | Constipation, drug-related AE: events (Fasted N=45): (0%) [0] | Constipation, drug-related AE: subjects (Fasted N=45): 0 | Diarrhoea, drug-related AE: % of subjects (Fasted N=45): 2% | Diarrhoea, drug-related AE: events (Fasted N=45): 1 | Diarrhoea, drug-related AE: subjects (Fasted N=45): 1 | Discontinued due to adverse events: % of subjects (Fasted N=45): (0%) [0] | Discontinued due to adverse events: events (Fasted N=45): (0%) [0] | Discontinued due to adverse events: subjects (Fasted N=45): 0 | Dizziness, drug-related AE: % of subjects (Fasted N=45): 11% | Dizziness, drug-related AE: events (Fasted N=45): 5 | Dizziness, drug-related AE: subjects (Fasted N=45): 5 | Dysgeusia, drug-related AE: % of subjects (Fasted N=45): 2% | Dysgeusia, drug-related AE: events (Fasted N=45): 1 | Dysgeusia, drug-related AE: subjects (Fasted N=45): 1 | Fatigue, drug-related AE: % of subjects (Fasted N=45): 2% | Fatigue, drug-related AE: events (Fasted N=45): 1 | Fatigue, drug-related AE: subjects (Fasted N=45): 1 | Feeling Hot, drug-related AE: % of subjects (Fasted N=45): 2% | Feeling Hot, drug-related AE: events (Fasted N=45): 1 | Feeling Hot, drug-related AE: subjects (Fasted N=45): 1 | Flushing, drug-related AE: % of subjects (Fasted N=45): (0%) [0] | Flushing, drug-related AE: events (Fasted N=45): (0%) [0] | Flushing, drug-related AE: subjects (Fasted N=45): 0 | Gastrointestinal Disorders Total, drug-related AE: % of subjects (Fasted N=45): 16% | Gastrointestinal Disorders Total, drug-related AE: events (Fasted N=45): 10 | Gastrointestinal Disorders Total, drug-related AE: subjects (Fasted N=45): 7 | General Disorders and Administration Site Conditions Total, drug-related AE: % of subjects (Fasted N=45): 4% | General Disorders and Administration Site Conditions Total, drug-related AE: events (Fasted N=45): 2 | General Disorders and Administration Site Conditions Total, drug-related AE: subjects (Fasted N=45): 2 | Headache, drug-related AE: % of subjects (Fasted N=45): 9% | Headache, drug-related AE: events (Fasted N=45): 4 | Headache, drug-related AE: subjects (Fasted N=45): 4 | Hypoaesthesia Facial, drug-related AE: % of subjects (Fasted N=45): 2% | Hypoaesthesia Facial, drug-related AE: events (Fasted N=45): 1 | Hypoaesthesia Facial, drug-related AE: subjects (Fasted N=45): 1 | Hypoaesthesia Oral, drug-related AE: % of subjects (Fasted N=45): 7% | Hypoaesthesia Oral, drug-related AE: events (Fasted N=45): 3 | Hypoaesthesia Oral, drug-related AE: subjects (Fasted N=45): 3 | Hypoaesthesia, drug-related AE: % of subjects (Fasted N=45): 4% | Hypoaesthesia, drug-related AE: events (Fasted N=45): 2 | Hypoaesthesia, drug-related AE: subjects (Fasted N=45): 2 | Nausea, drug-related AE: % of subjects (Fasted N=45): 7% | Nausea, drug-related AE: events (Fasted N=45): 3 | Nausea, drug-related AE: subjects (Fasted N=45): 3 | Nervous System Disorders Total, drug-related AE: % of subjects (Fasted N=45): 47% | Nervous System Disorders Total, drug-related AE: events (Fasted N=45): 43 | Nervous System Disorders Total, drug-related AE: subjects (Fasted N=45): 21 | Paraesthesia Oral, drug-related AE: % of subjects (Fasted N=45): 29% | Paraesthesia Oral, drug-related AE: events (Fasted N=45): 15 | Paraesthesia Oral, drug-related AE: subjects (Fasted N=45): 13 | Paraesthesia, drug-related AE: % of subjects (Fasted N=45): 22% | Paraesthesia, drug-related AE: events (Fasted N=45): 12 | Paraesthesia, drug-related AE: subjects (Fasted N=45): 10 | Possibly or probably related AEs, Mild: % of subjects (Fasted N=45): 47% | Possibly or probably related AEs, Mild: events (Fasted N=45): 55 | Possibly or probably related AEs, Mild: subjects (Fasted N=45): 21 | Possibly or probably related AEs, Moderate: % of subjects (Fasted N=45): 2% | Possibly or probably related AEs, Moderate: events (Fasted N=45): 1 | Possibly or probably related AEs, Moderate: subjects (Fasted N=45): 1 | Possibly or probably related AEs, Severe: % of subjects (Fasted N=45): (0%) [0] | Possibly or probably related AEs, Severe: events (Fasted N=45): (0%) [0] | Possibly or probably related AEs, Severe: subjects (Fasted N=45): 0 | Possibly or probably related AEs, Total: % of subjects (Fasted N=45): 47% | Possibly or probably related AEs, Total: events (Fasted N=45): 56 | Possibly or probably related AEs, Total: subjects (Fasted N=45): 21 | Serious adverse events: % of subjects (Fasted N=45): (0%) [0] | Serious adverse events: events (Fasted N=45): (0%) [0] | Serious adverse events: subjects (Fasted N=45): 0 | Skin and Subcutaneous Tissue Disorders Total, drug-related AE: % of subjects (Fasted N=45): 2% | Skin and Subcutaneous Tissue Disorders Total, drug-related AE: events (Fasted N=45): 1 | Skin and Subcutaneous Tissue Disorders Total, drug-related AE: subjects (Fasted N=45): 1 | Vascular Disorders Total, drug-related AE: % of subjects (Fasted N=45): (0%) [0] | Vascular Disorders Total, drug-related AE: events (Fasted N=45): (0%) [0] | Vascular Disorders Total, drug-related AE: subjects (Fasted N=45): 0 | All treatment emergent AEs, Total: subjects (Fasted N=45, phosphate): 23 and 24 | Abdominal Pain Upper, drug-related AE: % of subjects (Fed N=46): (0%) [0] | Abdominal Pain Upper, drug-related AE: events (Fed N=46): (0%) [0] | Abdominal Pain Upper, drug-related AE: subjects (Fed N=46): 0 | Abdominal Pain, drug-related AE: % of subjects (Fed N=46): (0%) [0] | Abdominal Pain, drug-related AE: events (Fed N=46): (0%) [0] | Abdominal Pain, drug-related AE: subjects (Fed N=46): 0 | Abdominal Tenderness, drug-related AE: % of subjects (Fed N=46): (0%) [0] | Abdominal Tenderness, drug-related AE: events (Fed N=46): (0%) [0] | Abdominal Tenderness, drug-related AE: subjects (Fed N=46): 0 | Acne, drug-related AE: % of subjects (Fed N=46): (0%) [0] | Acne, drug-related AE: events (Fed N=46): (0%) [0] | Acne, drug-related AE: subjects (Fed N=46): 0 | All treatment emergent AEs, Mild: % of subjects (Fed N=46): 48% | All treatment emergent AEs, Mild: events (Fed N=46): 38 | All treatment emergent AEs, Mild: subjects (Fed N=46): 22 | All treatment emergent AEs, Moderate: % of subjects (Fed N=46): 2% | All treatment emergent AEs, Moderate: events (Fed N=46): 1 | All treatment emergent AEs, Moderate: subjects (Fed N=46): 1 | All treatment emergent AEs, Severe: % of subjects (Fed N=46): 2% | All treatment emergent AEs, Severe: events (Fed N=46): 1 | All treatment emergent AEs, Severe: subjects (Fed N=46): 1 | All treatment emergent AEs, Total: events (Fed N=46): 40 | Constipation, drug-related AE: % of subjects (Fed N=46): 2% | Constipation, drug-related AE: events (Fed N=46): 1 | Constipation, drug-related AE: subjects (Fed N=46): 1
